Laboratory results taken from PubChem BioAssay (NCI).
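Tested at 5 concentrations; 48 h exposure; 96-well plates; endpoints linearly interpolated, else capped at highest concentration. At the GI50, growth is halved. TGI marks complete inhibition of growth.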

Experiments:
Assay in all cases: NCI-60 cell line screen, 48 h
[1] = system: MCF7 breast
[2] = system: OVCAR-8 ovarian
[3] = system: SNB-75 CNS
[4] = system: MOLT-4 leukemia
[5] = system: SF-268 CNS
[6] = system: ACHN renal
[7] = system: COLO 205 colon
[8] = system: MDA-MB-468 breast
[9] = system: EKVX NSCLC
[10] = system: OVCAR-3 ovarian
[11] = system: TK-10 renal
[12] = system: SN12C renal
[13] = system: A498 renal
[14] = system: SF-295 CNS
[15] = system: CAKI-1 renal
[16] = system: SNB-19 CNS
[17] = system: RXF 393 renal
[18] = system: UACC-257 melanoma
[19] = system: SK-MEL-5 melanoma
[20] = system: DU-145 prostate
[21] = system: 786-0 renal
[22] = system: UO-31 renal
[23] = system: MALME-3M melanoma
[24] = system: A549 NSCLC
[25] = system: CCRF-CEM leukemia
[26] = system: BT-549 breast
[27] = system: HCT-15 colon
[28] = system: NCI-H460 lung
[29] = system: HCC-2998 colon
[30] = system: NCI-H226 lung
[31] = system: M14 melanoma
[32] = system: SK-OV-3 ovarian
[33] = system: SW-620 colon
[34] = system: NCI-H522 lung
[35] = system: IGROV1 ovarian
[36] = system: SR leukemia
[37] = system: OVCAR-4 ovarian
[38] = system: SK-MEL-2 melanoma
[39] = system: RPMI-8226 leukemia
[40] = system: HOP-92 NSCLC
[41] = system: NCI/ADR-RES ovarian
[42] = system: KM12 colon
[43] = system: PC-3 prostate
[44] = system: HS 578T breast
[45] = system: T-47D breast
[46] = system: HL-60(TB) leukemia
[47] = system: SK-MEL-28 melanoma
[48] = system: UACC-62 melanoma
[49] = system: HT29 colon
[50] = system: HOP-62 NSCLC
[51] = system: K-562 leukemia
[52] = system: NCI-H23 lung
[53] = system: OVCAR-5 ovarian
[54] = system: U251 CNS
[55] = system: MDA-MB-435
[56] = system: MDA-MB-231 breast
[57] = system: HCT-116 colon
[58] = system: SF-539 CNS

Cn1cc(-c2cc(N)n3nc(-c4cn(C)c5ccccc45)cc3n2)c2cc(F)ccc21
GI50 [1]: 1.77 µM | TGI [1]: 3.95 µM | GI50 [2]: 1.97 µM | TGI [2]: 3.95 µM | GI50 [3]: 12.9 µM | TGI [3]: 28.6 µM | GI50 [4]: 2.44 µM | TGI [4]: 7.25 µM | GI50 [5]: 3.35 µM | TGI [5]: 13.4 µM | GI50 [6]: 1.77 µM | TGI [6]: 3.45 µM | GI50 [7]: 1.89 µM | TGI [7]: 3.57 µM | GI50 [8]: 1.92 µM | TGI [8]: 4.11 µM | GI50 [9]: 3.02 µM | TGI [9]: 15.7 µM | GI50 [10]: 2.69 µM | TGI [10]: 6.53 µM | GI50 [11]: 2.01 µM | TGI [11]: 8.26 µM | GI50 [12]: 1.71 µM | TGI [12]: 3.14 µM | GI50 [13]: 14.6 µM | TGI [13]: 29 µM | GI50 [14]: 1.78 µM | TGI [14]: 3.68 µM | GI50 [15]: 1.84 µM | TGI [15]: 3.98 µM | GI50 [16]: 3.09 µM | TGI [16]: 12.7 µM | GI50 [17]: 1.97 µM | TGI [17]: 3.72 µM | GI50 [18]: 1.75 µM | TGI [18]: 3.39 µM | GI50 [19]: 1.87 µM | TGI [19]: 3.89 µM | GI50 [20]: 4.15 µM | TGI [20]: 22.3 µM | GI50 [21]: 1.51 µM | TGI [21]: 2.92 µM | GI50 [22]: 1.62 µM | TGI [22]: 3.06 µM | GI50 [23]: 1.72 µM | TGI [23]: 3.14 µM | GI50 [24]: 2.17 µM | TGI [24]: 6.44 µM | GI50 [25]: 3.19 µM | TGI [25]: 24.2 µM | GI50 [26]: 10.5 µM | TGI [26]: 25.3 µM | GI50 [27]: 1.79 µM | TGI [27]: 4.02 µM | GI50 [28]: 2.02 µM | TGI [28]: 4.2 µM | GI50 [29]: 1.78 µM | TGI [29]: 3.32 µM | GI50 [30]: 21.7 µM | TGI [30]: 68.5 µM | GI50 [31]: 1.83 µM | TGI [31]: 3.52 µM | GI50 [32]: 3.32 µM | TGI [32]: 12.5 µM | GI50 [33]: 2.01 µM | TGI [33]: 4.05 µM | GI50 [34]: 1.65 µM | TGI [34]: 3.42 µM | GI50 [35]: 2.19 µM | TGI [35]: 5.18 µM | GI50 [36]: 2.16 µM | TGI [36]: 7.54 µM | GI50 [37]: 2.49 µM | TGI [37]: 6.55 µM | GI50 [38]: 1.82 µM | TGI [38]: 3.63 µM | GI50 [39]: 2.93 µM | TGI [39]: 8.56 µM | GI50 [40]: 2.06 µM | TGI [40]: 4.2 µM | GI50 [41]: 2.41 µM | TGI [41]: 6.26 µM | GI50 [42]: 2.47 µM | TGI [42]: 6.13 µM | GI50 [43]: 2.2 µM | TGI [43]: 5.54 µM | GI50 [44]: 2.39 µM | TGI [44]: 6.45 µM | GI50 [45]: 2.63 µM | TGI [45]: 8.91 µM | GI50 [46]: 2.1 µM | TGI [46]: 5.11 µM | GI50 [47]: 1.78 µM | TGI [47]: 3.44 µM | GI50 [48]: 1.68 µM | TGI [48]: 3.09 µM | GI50 [49]: 1.74 µM | TGI [49]: 3.34 µM | GI50 [50]: 1.96 µM | TGI [50]: 4.82 µM | GI50 [51]: 2.72 µM | TGI [51]: 7.52 µM | GI50 [52]: 2.08 µM | TGI [52]: 4.78 µM | GI50 [53]: 2.37 µM | TGI [53]: 6.49 µM | GI50 [54]: 1.82 µM | TGI [54]: 3.51 µM | GI50 [55]: 1.78 µM | TGI [55]: 3.33 µM | GI50 [56]: 1.97 µM | TGI [56]: 3.66 µM | GI50 [57]: 1.76 µM | TGI [57]: 3.18 µM | GI50 [58]: 1.76 µM | TGI [58]: 3.34 µM
